Measured values: US20140039204A1, “7'-PHLOROECKOL COMPOUND FOR HAIR PROLIFERATION AND A COSMETIC COMPOSITION CONTAINING SAME” (PUKYONG NATIONAL UNIVERSITY INDUSTRY-UNIVERSITY COOPERATION …, priority 2011, published 2014)

Experiments:
[1] = system: ERK pathway (MEK ½, p-ERK, total ERK, c-Fos) in HFDPC; test: Western blot, ERK pathway in HFDPC; assay type: cell-based, human; conditions: 1 hour
Procedure: (§1) Western blot assay was performed as standard procedure to study the action mechanism on HFDPC and HaCaT proliferation mediated by 7′-phloroeckol. That is, cells were seeded with serum free medium in 6-well, then cultured for 24 hours (1.0×10^6 cells/well). Then, the cells were replaced with new medium and treated with the samples in the different concentrations for 1 hour to 24 hours. The cells were lysed in RIPA lysis buffer at 4° C. for 10 minutes. 10 μg cell lysate were divided by 10% SDS-polyacrylamide gel electrophoresis, transferred to polyvinylidenefluoride membrane filter and the membranes were blocked with 5% skim milk, hybridized with primary antibodies (1:10,000 dilution). Following the incubation with secondary horseradish peroxidase-conjugated antibodies at room temperature, immunoreactive protein was detected by using chemiluminescence ECL assay kit according to the manufacturer's instructions. Western blot band was visualized by using LAS3000® Luminescent image analyzer (Fujifilm Life Science, Tokyo, Japan).
(§2) Cells were treated with 7′-phloroeckol for 1 hour to 24 hours to examine the expression of protein by using western blot assay. Graph showing the result of western blot in HFDPC were illustrated in the FIGS. 3 to 6(a) and graphs showing the result of western blot in HaCaT were illustrated in the FIGS. 3 to 6(b). While HFDPC and HaCaT were treated with 7′-phloroeckol for 1 hour in the experiment on the pathway of ERK and AKT relating cell proliferation, HFDPC and HaCaT were treated with 7′-phloroeckol for 24 hours in the experiment on Bcl-2, Bax, p53, caspase-9 and caspase-3 relating apoptosis, then the protein expression were observed.
(§3) Data were expressed as a ratio of control group that doesn't contain the treated samples, the values are means±SEM, different letters written on the graph indicate a significant defference in Duncan's multiple range test (p<0.05).
(§4) HFDPC and HaCaT were treated with 7′-phloroeckol and cultured for 1 hour to study activation of 7′-phloroeckol on ERK pathway related to cell proliferation (FIG. 3).

[2] = system: AKT pathway (PI3K, pAKT) in HaCaT; test: Western blot, AKT pathway in HaCaT; assay type: cell-based, human; conditions: 0.5 μM, 1 hour
Procedure: as §1
(§5) Cells were treated with 7′-phloroeckol for 1 hour to 24 hours to examine the expression of protein by using western blot assay. […]
(§6) Data were expressed as a ratio of control group that doesn't contain the treated samples, the values are means±SEM, different letters written on the graph indicate a significant defference in Duncan's multiple range test (p<0.05). […]

[3] = system: ERK pathway (MEK ½, p-ERK, c-Fos) in HaCaT; test: Western blot, ERK pathway in HaCaT; assay type: cell-based, human; conditions: 1 hour
Procedure: as §1, §2, §3, §4

[4] = system: AKT pathway (PI3K, p-AKT, whole AKT) in HFDPC; test: Western blot, AKT pathway in HFDPC; assay type: cell-based, human; conditions: 1 hour
Procedure: as §1, §2, §3
After HFDPC and HaCaT were treated with 7′-phloroeckol and cultured for 1 hour to study the activation of 7′-phloroeckol on AKT pathway related cell proliferation (FIG. 4). […] But, there was no difference in whole AKT levels between treated with samples and without samples. Also, 0.5 μM 7′-phloroekol induced 1.75-fold and 1.65-fold levels of PI3K and pAKT in HaCaT.

[5] = system: caspase-3 and caspase-9 in HFDPC; test: Western blot, caspase-3 and caspase-9 in HFDPC; assay type: cell-based, human; conditions: 0.5 μM, 24 hours
Procedure: as §1, §5, §6

[6] = system: caspase-3 and caspase-9 in HaCaT; test: Western blot, caspase-3 and caspase-9 in HaCaT; assay type: cell-based, human; conditions: 24 hours
Procedure: as §1, §2, §6

[7] = system: Human Hair Follicle Dermal Papilla Cells (HFDPC); test: MTT assay, cell proliferation of HFDPC; assay type: cell-based
Procedure: (§7) Human Hair Follicle Dermal Papilla Cells (HFDPC) were purchased from Promo Cell (Heidelberg, Germany). Cells were cultured in ready-to-use HFDPC medium, which is composed of Basal Medium, Fetal Calf Serum (FCS), Supplement Kit (Promo Cell, Heidelberg, Germany) including basic FGF and insulin. Kit including HEPES Buffer Saline Solution (HBSS), trypsin/EDTA solution and Trypsin Neutralizing Solution (Promo Cell, Heidelberg, Germany) was used for subculture. Subcultured 4th to 6th TFDPC was used for experiments. HaCaT (human epidermal keratinocyte) was cultured in Dulbecco's modified Eagle's medium (DMEM, Gibco BRL,
(§8) 3-[4,5-dimethylthiazol-2yl]-2,5 diphenyl tetrazolium bromide (MTT) Assay
(§9) Cell proliferation of HFDPC and HaCaT were measured by using MTT method. After cells were seeded in 96-well with serum-free medium, the cells were incubated for 1 day (1.0×10^4 cells/well). Then, we replaced with new medium and cells were treated with 0.01 μM, 0.05 μM, 0.1 μμM, 0.5 μM and 1 μM samples, then incubated for 5 days. MTT solution (5 mg/ml) was added, the cells were cultivated in 37° C. incubator for 3 hours. Then, the medium were removed and the formazan crystal were dissolved with Dimethyl sulfoxide (DMSO), then the absorbance of the solution were measured.
As described in the FIG. 1 and FIG. 2, data were expressed as the percentage on the control that doesn't contain the treated samples. […] Different letters as stated on the graph indicate a significant difference in Duncan's multiple range test (p<0.05).

Bcl-2, Bax, p53 in HaCaT = test: Western blot, apoptosis-related factors in HaCaT; assay type: cell-based, human; conditions: 24 hours
Procedure: as §1, §2, §3
(§10) To study the apoptotic effect by 7′-phloroeckol, HFDPC and HaCaT were treated with 7′-phloroeckol, then cultured for 24 hours (FIG. 5).

Bcl-2, Bax, p53 in HFDPC = test: Western blot, apoptosis-related factors in HFDPC; assay type: cell-based, human; conditions: 24 hours
Procedure: as §1, §2, §3, §10

[8] = system: HaCaT (human epidermal keratinocyte); test: MTT assay, cell proliferation of HaCaT; assay type: cell-based; conditions: 5 days
Procedure: as §7, §8, §9
As described in the FIG. 1 and FIG. 2, data were expressed as the percentage on the control that doesn't contain the treated samples. […]

With Oc1cc(O)cc(Oc2c(O)cc(O)c3c2Oc2c(O)cc(Oc4c(O)cc(O)cc4O)cc2O3)c1 [7′-phloroeckol, 1-(3′,5′-dihydroxyphenoxy)-7-(2″,4″,6-trihydroxyphenoxy)-2,4,9-trihydroxydibenzo-1,4-dioxin] the “expression of MEK ½ protein versus control group” value ([1]; 0.05 μM) was 1.17 fold, the “level of phospho-ERK (p-ERK) versus control group” value ([1]; 0.05 μM) was 1.39 fold and the “expression of MEK ½ protein versus control group” value ([1]; 0.5 μM) was 1.65 fold. For the same compound, the “level of phospho-ERK (p-ERK) versus control group” value ([1]; 0.5 μM) was 1.71 fold, the “expression of c-Fos protein” value ([1]; 0.05 and 0.5 μM) was “increased the expression of c-Fos protein” and the “total ERK levels, treated versus untreated” value ([1]; 0.05 and 0.5 μM) was “no significant difference”. The “level of PI3K” value [2] was 1.75 fold, the “level of pAKT” value [2] was 1.65 fold and the “expression of MEK ½ protein” value [3] was “increased in dose-dependent manner”. For the same compound, the “expression of c-Fos protein” value [3] was “increased in dose-dependent manner”, the “expression of p-ERK protein” value [3] was “increased in dose-dependent manner” and the “PI3K levels versus control group” value ([4]; 0.05 μM) was 1.76 fold. The “expression of phospho AKT (p-AKT) protein versus control group” value ([4]; 0.05 μM) was 1.53 fold, the “PI3K levels versus control group” value ([4]; 0.5 μM) was 3.07 fold and the “expression of phospho AKT (p-AKT) protein versus control group” value ([4]; 0.5 μM) was 2.40 fold. For the same compound, the “whole AKT levels, treated versus untreated” value [4] was “no difference”, the “expression of caspase-3 protein versus control group” value [5] was 0.14 fold and the “expression of caspase-9 protein versus control group” value [5] was 0.13 fold. The “expression of caspase-3 protein versus control group” value ([6]; 0.05 μM) was 0.88 fold, the “expression of caspase-3 protein versus control group” value ([6]; 0.5 μM) was 0.68 fold and the “expression of caspase-9” value [6] was “suppressing the expression”. The “cell proliferation in HFDPC” value ([7]; 0.01-1 μM, 5 days, percentage of control) was “increased the cell proliferation in dose-dependent manner”, the “cell viability compared with 1 μM Minoxidil” value ([7]; HFDPC, 1 μM, 5 days) was “significantly higher cell viability than 1 μM Minoxidil” and the “cell proliferation, 0.5 versus 1 μM” value ([7]; HFDPC, 0.5 to 1 μM) was “weren't significantly different”. The “expression of Bcl-2 protein versus control group” value (Bcl-2, Bax, p53 in HaCaT; 0.05 μM) was 2.60 fold, the “expression of Bcl-2 protein versus control group” value (Bcl-2, Bax, p53 in HaCaT; 0.5 μM) was 4.21 fold and the “level of Bax versus control” value (Bcl-2, Bax, p53 in HaCaT; 0.5 μM) was 0.67 fold. The “level of p53 versus control” value (Bcl-2, Bax, p53 in HaCaT; 0.5 μM) was 0.72 fold, the “expression level of Bcl-2” value (Bcl-2, Bax, p53 in HFDPC) was “decreased” and the “expression level of p53” value (Bcl-2, Bax, p53 in HFDPC) was “decreased”. For the same compound, the “expression of proapoptotic molecule Bax” value (Bcl-2, Bax, p53 in HFDPC) was “decreased the expression of proapoptotic molecule Bax”, the “expression level of Bcl-2 protein” value (Bcl-2, Bax, p53 in HFDPC; dose-dependent) was “significantly increased” and the “cell proliferation in HaCaT” value ([8]; 0.01-1 μM, percentage of control) was “increased the cell proliferation in dose-dependent manner”. The “cell viability compared with 0.1 μM Minoxidil” value ([8]; HaCaT, 0.1 μM) was “higher cell viability than 0.1 μM Minoxidil”.
